These results are taken from patent publication US20230130766A1 (SALK INSTITUTE FOR BIOLOGICAL STUDIES, priority 2020, published 2023).

The target of the assay is T1, ULK1 (Homo sapiens, UniProt O75385).
T1 sequence (O75385 1-1050): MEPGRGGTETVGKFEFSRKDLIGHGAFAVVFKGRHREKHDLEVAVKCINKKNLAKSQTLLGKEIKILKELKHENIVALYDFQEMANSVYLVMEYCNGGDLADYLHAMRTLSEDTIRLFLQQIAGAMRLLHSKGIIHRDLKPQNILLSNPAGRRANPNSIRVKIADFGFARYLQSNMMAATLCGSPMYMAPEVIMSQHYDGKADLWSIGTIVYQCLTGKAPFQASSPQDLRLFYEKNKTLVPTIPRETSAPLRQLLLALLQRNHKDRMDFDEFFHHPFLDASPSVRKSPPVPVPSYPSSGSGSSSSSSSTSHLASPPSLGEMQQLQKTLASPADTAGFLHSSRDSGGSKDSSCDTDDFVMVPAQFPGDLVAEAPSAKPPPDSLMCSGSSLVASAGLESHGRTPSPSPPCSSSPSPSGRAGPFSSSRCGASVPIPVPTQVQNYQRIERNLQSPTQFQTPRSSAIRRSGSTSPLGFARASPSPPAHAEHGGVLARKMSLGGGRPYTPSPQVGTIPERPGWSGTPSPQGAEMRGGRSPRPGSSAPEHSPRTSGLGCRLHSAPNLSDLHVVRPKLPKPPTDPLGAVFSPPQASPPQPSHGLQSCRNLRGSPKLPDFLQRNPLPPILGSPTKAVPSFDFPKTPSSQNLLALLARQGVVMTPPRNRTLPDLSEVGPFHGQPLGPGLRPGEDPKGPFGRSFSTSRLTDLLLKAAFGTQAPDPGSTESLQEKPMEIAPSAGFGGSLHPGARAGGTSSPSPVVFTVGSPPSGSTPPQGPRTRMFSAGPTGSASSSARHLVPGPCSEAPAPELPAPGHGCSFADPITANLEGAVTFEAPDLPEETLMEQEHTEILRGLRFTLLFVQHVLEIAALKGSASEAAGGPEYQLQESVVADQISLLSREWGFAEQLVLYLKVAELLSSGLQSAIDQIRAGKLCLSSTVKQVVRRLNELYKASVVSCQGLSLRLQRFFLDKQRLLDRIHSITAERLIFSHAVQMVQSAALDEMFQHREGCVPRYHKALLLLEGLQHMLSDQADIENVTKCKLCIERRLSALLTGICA
The assay is described as follows: ULK1 inhibition assay. The class given is biochemical. The settings on record: * = tested as a mixture of regioisomers.

What is called IC50 is the concentration needed to halve the response being measured.

The structures appear in SMILES notation.

Turning to `N=c1ccon1-c1ncc(C(F)(F)F)c(NC2CC2)n1` [Compound 214b], the concentration for half-maximal inhibition (IC50) is above 2000 nM.
With `FC(F)(F)c1cnc(Nc2ccc3c(c2)OCO3)nc1N1CCC1` [Compound 166b] the figure was below 200 nM.
On to `FC(F)(F)c1cnc(Nc2cnc3[nH]ccc3c2)nc1NC1CC1` [Compound 152a], for which the IC50 is below 200 nM.
Take `CNC(=O)c1ccccc1Oc1nc(Nc2ccccc2SC)ncc1C(F)(F)F` [Compound 116a]: the IC50 is above 2000 nM.
Consider `COc1cc(Nc2ncc(Br)c(Oc3ccccc3C(N)=O)n2)cc(OC)c1OC` [Compound 249], for which the half-inhibitory concentration (IC50) was below 200 nM.
With `COc1ccc(Nc2nc(Nc3ccc4c(c3)CCC(=O)N4)ncc2Br)cn1` [Compound 156] the figure was below 200 nM.
With `CNC(=O)c1ccccc1Oc1nc(Nc2ccc3c(c2)CCC(=O)N3)ncc1Br` [Compound 325] the figure was above 2000 nM; with `FC(F)(F)c1cnc(Nc2ccc3ncoc3c2)nc1NC1CC1` [Compound 208a], below 200 nM.
With `FC(F)(F)c1cnc(NC2CC2)nc1Nc1ccc2c(c1)OCCO2` [Compound 158b] the figure was below 200 nM; with `FC(F)(F)c1cnc(NCc2cccc3ccccc23)nc1NC1CC1` [Compound 262], above 2000 nM; with `FC(F)(F)c1cnc(Nc2ccc3nn[nH]c3c2)nc1NC1CC1` [Compound 188], below 200 nM.
Take `O=[N+]([O-])c1cnc(NC2CC2)nc1NC1CC1` [Compound 291b]: the IC50 is above 2000 nM.
Next, `CCN1CCOc2cc(Nc3nc(Nc4ccc5c(c4)CCC(=O)N5)ncc3Br)cnc21` [Compound 343]: below 200 nM; `CNC(=O)Cc1ccccc1Oc1nc(Nc2cc(OC)c(OC)c(OC)c2)ncc1Br` [Compound 327]: above 2000 nM.
With `COc1ccc(C)c(Nc2ncc(Cl)c(Nc3ccc(OC)nc3)n2)c1` [Compound 34] the figure was above 2000 nM; with `FC(F)(F)c1cnc(Nc2ccc3c(c2)OCO3)nc1NCC1CC1` [Compound 167b], below 200 nM; with `CC(=O)Nc1ccccc1Oc1nc(Nc2ccc3c(c2)OCO3)ncc1Br` [Compound 321a], above 2000 nM.
Regarding `CNC(=O)c1ccccc1Nc1nc(Nc2ccc3[nH]ccc3c2)ncc1Br` [Compound 23], the IC50 was below 200 nM.
Next, `O=C1CCc2cc(Nc3ncc(C(F)(F)F)c(NCc4ccccc4)n3)ccc2N1` [Compound 43]: below 200 nM.
With `COC(=O)CNc1nc(Nc2ccc3c(c2)CCC(=O)N3)ncc1C(F)(F)F` [Compound 218], the IC50 is above 2000 nM.
Turning to `O=C1CCc2cc(Nc3ncc(C(F)(F)F)c(OC4CCC4)n3)ccc2N1` [Compound 175], the 50% inhibitory concentration (IC50) is below 200 nM.
With `COc1ccc(Nc2nc(Nc3ccc(N4CCOCC4)cc3OC)ncc2Cl)cn1` [Compound 27] the figure was above 2000 nM; with `CNC(=O)c1ccccc1Oc1nc(Nc2cc(OC)c(OC)c(OC)c2)ncc1C(F)(F)F` [Compound 92], below 200 nM; with `CNC(=O)c1ccccc1Nc1nc(Nc2ccccc2C)ncc1Cl` [Compound 53], above 2000 nM.
With `COc1cc(Nc2nc(Oc3cccc4c3N(C(C)=O)CCC4)ncc2Br)cc(OC)c1OC` [Compound 335b] the figure was below 200 nM; with `FC(F)(F)c1cnc(Nc2ccc3c(c2)OCCO3)nc1NC1CC1` [Compound 158a], below 200 nM; with `CNC(=O)c1cccc(Oc2nc(Nc3ccc4c(c3)CCC(=O)N4)ncc2Br)c1` [Compound 268], 200 to 2000 nM.
With `COc1cccc(Nc2ncc(C(F)(F)F)c(O)n2)c1OC` [Compound 115b] the figure was above 2000 nM.
Consider `COc1ccc(Nc2ncc(C(F)(F)F)c(O)n2)cc1` [Compound 105b], for which the IC50 is above 2000 nM.
With `COc1cc(Nc2ncc(Br)c(Oc3ccccc3C3=NC(C)(C)CO3)n2)cc(OC)c1OC` [Compound 355] the figure was above 2000 nM; with `COC(=O)Nc1ccccc1Oc1nc(Nc2cc(OC)c(OC)c(OC)c2)ncc1Br` [Compound 296], below 200 nM; with `CNC(=O)c1ccccc1Oc1nc(Nc2ccc(C)cc2Cl)ncc1C(F)(F)F` [Compound 107], above 2000 nM.
Next, `Brc1cnc(Nc2cnc3[nH]ccc3c2)nc1NC1CC1` [Compound 174]: below 200 nM.
Next, `FC(F)(F)c1cnc(Nc2ccc3c(c2)OCCCO3)nc1NC1CC1` [Compound 190]: below 200 nM.
Take `O=C1CCc2cc(Nc3nccc(NC4CC4)n3)ccc2N1` [Compound 200]: the IC50 is above 2000 nM.
With `Cc1ccc(Nc2nc(Nc3ccc4c(c3)CCC(=O)N4)ncc2C(F)(F)F)cc1C` [Compound 125] the figure was below 200 nM; with `FC(F)(F)c1cnc(Nc2ccc3c(c2)OCO3)nc1NC1Cc2ccccc2C1` [Compound 163b], above 2000 nM; with `COc1cc(Nc2ncc(Br)c(Oc3ccccc3NS(C)(=O)=O)n2)cc(OC)c1OC` [Compound 345], above 2000 nM.
Next, `CNC(=O)c1ccccc1Oc1ccnc(Nc2cc(OC)c(OC)c(OC)c2)n1` [Compound 239]: above 2000 nM.
In the case of `COc1cc(Nc2ncc(Cl)c(Nc3ccccc3CO)n2)cc(OC)c1OC` [Compound 348], the IC50 is above 2000 nM.
Next, `O=C1CCc2cc(Nc3ncc(C(F)(F)F)c(Nc4ccc5c(c4)CCC(=O)N5)n3)ccc2N1` [Compound 120c]: below 200 nM.
Next, `O=C1CCc2cc(Nc3nc(Oc4ccccc4)ncc3C(F)(F)F)ccc2N1` [Compound 300b]: above 2000 nM; `CNC(=O)c1ccccc1Nc1nc(Nc2cccc(OC)c2)ncc1Cl` [Compound 44]: below 200 nM; `O=C1CCc2cc(Nc3ncc(C(F)(F)F)c(Nc4ccc5c(c4)OC(F)(F)O5)n3)ccc2N1` [Compound 178a]: below 200 nM.
Next, `COc1cc(Nc2ncc(Br)c(Oc3ccccc3CN(C)C)n2)cc(OC)c1OC` [Compound 283]: above 2000 nM; `O=C1CCc2cc(Nc3ncc(C(F)(F)F)c(Nc4ccc5c(c4)CCC5)n3)ccc2N1` [Compound 129]: below 200 nM; `COc1cc(Nc2ncc(C(F)(F)F)c(NC3CC3)n2)cc(OC)c1OC` [Compound 187]: below 200 nM.
Regarding `Nc1nc(Nc2cnc3[nH]ccc3c2)ncc1C(F)(F)F` [Compound 217], the IC50 is above 2000 nM.
For `CNC(=O)c1ccccc1Nc1nc(Nc2cnc3[nH]ccc3c2)ncc1C(F)(F)F` [Compound 201], the IC50 is below 200 nM.
With `COc1cc(Nc2ncc(Br)c(Oc3ccccc3NC(C)=O)n2)cc(OC)c1OC` [Compound 254a] the figure was below 200 nM; with `O=C(C1CC1)N1CCc2cc(Nc3ncc(C(F)(F)F)c(NC4CC4)n3)ccc2C1` [Compound 332], below 200 nM.
With `COc1cc(Nc2ncc(Br)c(Oc3ccccc3-c3nc(C)co3)n2)cc(OC)c1OC` [Compound 290] the figure was above 2000 nM; with `COc1ccc(C)c(Nc2ncc(Cl)c(NCc3cccc(S(C)(=O)=O)c3)n2)c1` [Compound 41], above 2000 nM.
With `COc1cc(Nc2ncc(Br)c(Oc3ccccc3NC(=O)C(F)(F)F)n2)cc(OC)c1OC` [Compound 323] the figure was below 200 nM; with `CSc1ccccc1Nc1ncc(C(F)(F)F)c(Nc2ccccc2SC)n1` [Compound 116b], above 2000 nM; with `O=C1CCc2cc(Nc3ncc(Br)c(Nc4ccccn4)n3)ccc2N1` [Compound 155], below 200 nM.
`COc1cc(Nc2ncc(Br)c(Oc3ccccc3NC(=O)C(C)(C)C)n2)cc(OC)c1OC` [Compound 320]: the IC50 is above 2000 nM.
Next, `CC(CCl)Nc1nc(Nc2ccc3c(c2)CCC(=O)N3)ncc1C(F)(F)F` (stereo not shown) [Compound 183c]: above 2000 nM.
`FC(F)(F)c1cnc(Nc2cnc3[nH]ccc3c2)nc1Nc1ccccc1` [Compound 181a]: the half-maximal inhibitory concentration (IC50) is below 200 nM.
Consider `Oc1nc(Nc2ccc(Cl)c(Cl)c2)ncc1C(F)(F)F` [Compound 108b], for which the IC50 is above 2000 nM.
Next, `CCONc1nc(Nc2ccc3c(c2)CCC(=O)N3)ncc1C(F)(F)F` [Compound 219]: above 2000 nM; `COc1c(C)cnc(CNc2nc(Nc3ccc4c(c3)CCC(=O)N4)ncc2C(F)(F)F)c1C` [Compound 82]: below 200 nM; `FC(F)(F)c1cnc(Nc2cccc(Oc3ccccc3)c2)nc1Nc1ccc2c(c1)OCO2` [149*]: above 2000 nM.
In the case of `O=C1CCc2cc(Nc3ncc(C(F)(F)F)c(NCC4CC4)n3)ccc2N1` [Compound 216], the IC50 is below 200 nM.
Next, `O=C1CCc2cc(Nc3ncc(C(F)(F)F)c(OCCN4CCOC4=O)n3)ccc2N1` [Compound 357]: 200 to 2000 nM.
Next, `CC1CN1c1nc(Nc2ccc3c(c2)CCC(=O)N3)ncc1C(F)(F)F` (stereo not shown) [Compound 183a]: above 2000 nM; `COc1cc(Nc2ncc(Br)c(Nc3ccccc3)n2)cc(OC)c1OC` [Compound 293]: below 200 nM.
